Key:
[1] = molecular target: T1, rat olfactory CNG channel subunit 1 (Rattus norvegicus, UniProt Q00195); assay: inside-out patch clamp, cGMP dose-response of current; format: cell-based
T1 sequence (Q00195 1-664): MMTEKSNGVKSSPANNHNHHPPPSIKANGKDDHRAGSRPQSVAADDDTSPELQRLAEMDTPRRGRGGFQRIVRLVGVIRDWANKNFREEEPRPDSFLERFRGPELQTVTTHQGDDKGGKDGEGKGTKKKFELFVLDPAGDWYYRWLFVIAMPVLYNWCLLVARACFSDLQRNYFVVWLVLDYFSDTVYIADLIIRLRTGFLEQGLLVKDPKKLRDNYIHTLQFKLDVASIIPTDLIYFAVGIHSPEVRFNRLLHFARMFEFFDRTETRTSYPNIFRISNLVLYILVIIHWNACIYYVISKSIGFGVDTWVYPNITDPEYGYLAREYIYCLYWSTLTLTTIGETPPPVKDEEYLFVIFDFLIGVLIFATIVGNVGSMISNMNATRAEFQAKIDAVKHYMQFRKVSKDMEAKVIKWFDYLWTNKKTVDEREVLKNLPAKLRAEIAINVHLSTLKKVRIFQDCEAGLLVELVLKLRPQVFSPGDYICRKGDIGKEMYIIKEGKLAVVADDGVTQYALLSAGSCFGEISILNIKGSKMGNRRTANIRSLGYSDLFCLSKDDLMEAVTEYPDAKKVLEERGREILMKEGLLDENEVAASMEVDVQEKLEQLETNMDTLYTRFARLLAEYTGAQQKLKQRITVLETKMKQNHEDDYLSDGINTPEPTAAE

[2] = molecular target: T1, rat olfactory CNG channel subunit 1; assay: inside-out patch clamp, oocytes, Michaelis-Menten fit of block; format: cell-based

EC50 [1] [µM]	IC50 [2] [µM]	SMILES
2.1 ± 0.12	–	Nc1nc2c(ncn2[C@@H]2O[C@@H]3COP(=O)(O)O[C@H]3[C@H]2O)c(=O)[nH]1 [cGMP]
–	170 ± 22	CCCCNc1ccc(C(=O)OCCN(C)C)cc1 [tetracaine]

Source: PMC2217055 (The Journal of General Physiology, 1997)
